Key:
[1] = test system: LoVo xenograft tumor model; experiment: LoVo human colon cancer subcutaneous xenograft tumor model; assay type: in vivo; details: 21st day of administration, azvudine 1 mpk, capecitabine 400 mpk, combination 1 + 400 mpk; for Tumor volume (mm^3): BALB/c nude mice, p.o. QD x 3 weeks
Procedure: Human colon cancer cells LoVo (Cat. No.: ECACC-87060101) were cultured in vitro as a monolayer in F12K medium containing 10% fetal bovine serum, 100 U/mL penicillin and 100 μg/mL streptomycin, in a 37° C. and 5% CO2 incubator. The cells were routinely digested with trypsin-EDTA and passaged twice a week. When the cell saturation reached 80%-90% and the cell number achieved the requirement, the cells were collected, counted and inoculated.
0.1 mL)(10×10^6) of LoVo cells were subcutaneously inoculated on the right back of each mouse. The grouping administration was started when the average tumor volume reached about 147 mm^3.
The tumor volume changes and the tumor weight changes in each group (on the 21st day of administration) after administration of test drugs for treating BALB/c nude mice with Lovo cell subcutaneous xenograft tumor are shown in Table 5 and Table 6 respectively.

[2] = test system: Colo 205 human colon cancer model; experiment: Colo 205 human colon cancer subcutaneous xenograft tumor model; assay type: in vivo
Procedure: Experimental animals were 68 (48 plus 20 spare mice) BALB/c female nude mice, 7-8 weeks old (the age of mice at the time of tumor cell inoculation) and weighing 15.7-20.7 g, which were purchased from Beijing VitalRiver Experimental Animal Technology Co., Ltd. Breeding environment was SPF grade. The experimental animals were all kept in an independent ventilated box with constant temperature and humidity. The temperature of the breeding room was 20-26° C., the humidity was 40-70%. The breeding room was ventilated 10-20 times per hour. The alternating time of day and night was 12 h/12 h. The mice were continuously supplied with cobalt 60 radiation sterilized mouse complete pellet feed, and had free access to the feed. The mice drank tap water (available after sterilization with high-pressure steam), which was continuously supplied using a water-drinking bottle, and had free access to water. The mouse box was a polysulfone mouse box, which was used after sterilization under high pressure, with a size of 325 mm×210 mm×180 mm.
Colo 205 cells were cultured in RPMI1640 medium containing 10% fetal bovine serum. Colo 205 cells in the exponential growth phase were collected, resuspended in PBS to an appropriate concentration and mixed with Matrigel at a ratio of 1:1. The resulting mixture was used for subcutaneous inoculation of tumor in mice. 5×10^6 Colo 205 cells were subcutaneously inoculated on the right side of female mice. The day of inoculation was defined as Day 0. When the average tumor volume reached 110.26 mm^3, the mice were randomly divided into groups according to tumor size.
Relative tumor proliferation rate, T/C %, refers to the percentage value of the relative tumor volume or tumor weight of the treatment group and the control group at a certain time point, which was calculated as follows:
T/C %=TRTV/CRTV×100% (TRTV: the average RTV of the treatment group; CRTV: the average RTV of the vehicle control group; RTV=Vt/V0, where V0 is the tumor volume of the animal when grouped, and Vt is the tumor volume of the animal after treatment); • or T/C %=TTW/CTW×100% (TTW: the average tumor weight of the treatment group at the end of the experiment; CTW: the average tumor weight of the vehicle control group at the end of the experiment). • Relative tumor inhibition rate, TGI (%), was calculated according to the formula as follows: TGI %=(1−T/C)×100%. (T and C are the relative tumor volumes (RTV) or tumor weights (TW) of the treatment group and the control group at a specific time point).

[3] = based on tumor volume, 25th day after inoculation, p.o. QD x 3 weeks, azvudine 1 mpk, capecitabine 400 mpk, combination 1 + 400 mpk
[4] = based on tumor weight, azvudine 1 mpk, capecitabine 400 mpk, combination 1 + 400 mpk

[N-]=[N+]=N[C@]1(CO)O[C@@H](n2ccc(N)nc2=O)[C@@H](F)[C@@H]1O [Azvudine, azvudine]
Tumor volume (mm^3) [1]: 902 ± 163 mm^3
Tumor volume (mm^3) ([1]; listed as azvudine): 902 mm^3
Tumor weight [1]: 0.937 ± 0.142 g
T/C (%) ([1]; based on tumor volume): 62.00%
TGI (%) ([1]; based on tumor volume): 43.40%
T/C (%) ([1]; based on tumor weight): 66.37%
Tumor volume ([2]; 25th day after inoculation (20th day after grouping), BALB/c nude mice, p.o. QD x 3 weeks, azvudine 1 mpk, capecitabine 400 mpk, combination 1 + 400 mpk): 985.14 ± 108.58(6)
average tumor volume ([2]; 25th day after tumor inoculation (20th day after grouping), azvudine 1 mg/kg, capecitabine 400 mg/kg, combination 1 + 400 mg/kg): 985.14 mm^3
T/C (%) [2, 3]: 67.57%
TGI (%) [2, 3]: 32.43%
T/C (%) [2, 4]: 28.19%
TGI [2, 4]: 71.81
Tumor weight (mg) ([2]; end of experiment, p.o. QD x 3 weeks, azvudine 1 mpk, capecitabine 400 mpk, combination 1 + 400 mpk): 986.10 ± 107.78(6) mg

Source: US12268702B2, “Antitumor pharmaceutical composition comprising azvudine and chemotherapeutic agent” (HENAN GENUINE BIOTECH CO., LTD., priority 2023, dated 2025)
